Measured values from patent publication US9828379B2 (priority 2013, dated 2017).
Where two headings read alike, the source gives them in different places.

Key:
ABHD6 [1] = target: T1, ABHD6 (Mus musculus, UniProt Q8R2Y0); assay: biochemical; settings: in vitro competitive ABPP
T1 sequence (Q8R2Y0 1-336): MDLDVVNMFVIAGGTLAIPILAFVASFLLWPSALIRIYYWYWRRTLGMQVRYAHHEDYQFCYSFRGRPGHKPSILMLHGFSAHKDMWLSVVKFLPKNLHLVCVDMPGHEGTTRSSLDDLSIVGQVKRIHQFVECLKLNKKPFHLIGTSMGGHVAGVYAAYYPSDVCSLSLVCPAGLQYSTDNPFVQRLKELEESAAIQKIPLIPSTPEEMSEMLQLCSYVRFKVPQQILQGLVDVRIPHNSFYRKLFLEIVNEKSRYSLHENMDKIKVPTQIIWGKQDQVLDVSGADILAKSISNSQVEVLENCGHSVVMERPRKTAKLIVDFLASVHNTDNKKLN

FAAH [2] = target: T2, FAAH (Mus musculus, UniProt O08914); assay: biochemical; settings: in vitro competitive ABPP
T2 sequence (O08914 1-579): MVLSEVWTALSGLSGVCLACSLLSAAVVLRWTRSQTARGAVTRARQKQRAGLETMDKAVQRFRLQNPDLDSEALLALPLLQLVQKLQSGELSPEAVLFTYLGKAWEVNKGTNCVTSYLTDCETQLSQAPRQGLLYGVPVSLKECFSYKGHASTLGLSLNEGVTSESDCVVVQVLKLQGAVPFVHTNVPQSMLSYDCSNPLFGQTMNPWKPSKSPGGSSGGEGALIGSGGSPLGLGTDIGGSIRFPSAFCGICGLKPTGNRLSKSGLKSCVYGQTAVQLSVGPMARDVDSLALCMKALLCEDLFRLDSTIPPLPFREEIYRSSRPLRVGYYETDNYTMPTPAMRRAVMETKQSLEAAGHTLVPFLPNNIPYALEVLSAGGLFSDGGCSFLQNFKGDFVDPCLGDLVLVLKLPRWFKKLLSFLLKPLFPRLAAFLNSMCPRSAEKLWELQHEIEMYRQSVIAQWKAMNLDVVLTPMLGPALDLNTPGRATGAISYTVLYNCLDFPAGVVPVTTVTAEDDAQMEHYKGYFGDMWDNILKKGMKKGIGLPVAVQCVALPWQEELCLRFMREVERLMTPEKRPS

MAGL [3] = target: T3, MAGL (Mus musculus, UniProt O35678); assay: biochemical
T3 sequence (O35678 1-303): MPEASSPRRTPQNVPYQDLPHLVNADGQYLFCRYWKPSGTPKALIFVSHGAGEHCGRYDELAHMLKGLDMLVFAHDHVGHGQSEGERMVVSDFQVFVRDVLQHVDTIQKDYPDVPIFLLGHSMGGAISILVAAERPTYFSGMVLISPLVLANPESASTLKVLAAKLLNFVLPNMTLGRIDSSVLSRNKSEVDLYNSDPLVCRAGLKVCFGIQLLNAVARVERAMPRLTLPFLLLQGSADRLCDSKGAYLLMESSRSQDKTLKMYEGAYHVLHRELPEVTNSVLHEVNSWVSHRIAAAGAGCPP

ABHD6 [4] = target: T1, ABHD6; assay: In vitro competitive activity-based protein profiling (Table 2, % inhibition at 1 μM); format: biochemical; settings: read-out: % Inhibition at 1 μM ABHD6
FAAH [5] = target: T2, FAAH; assay: as above; format: biochemical; settings: read-out: % Inhibition at 1 μM FAAH
MAGL [6] = target: T3, MAGL; assay: as above; format: biochemical; settings: read-out: % Inhibition at 1 μM MAGL
Experimental: After 30 min, FP—Rh (1.0 μL, 50 μM in DMSO) was added and the mixture was incubated for another 30 min at 37° C. Reactions were quenched with SDS loading buffer (50 μL-4×) and run on SDS-PAGE.
Cell lysates were diluted with mock proteomes for use in competitive ABPP experiments.

[7] = mouse, in vitro competitive ABPP, read-out: Mouse (IC50 value, nM) MAGL

SMILES | IC50 (ABHD6 [1]) [nM] | IC50 (FAAH [2]) [nM] | IC50 (MAGL [3]; [7]) [nM] | inhibition at 1 µM (ABHD6 [4]) [%] | inhibition at 1 µM (FAAH [5]) [%] | inhibition at 1 µM (MAGL [6]) [%] | IC50 (MAGL [3]) [nM]
O=C(OC(C(F)(F)F)C(F)(F)F)N1CC2CN(Cc3ccc(N4CCCCC4)cc3C(F)F)CC2C1 (stereo not drawn) [Example 201, 1,1,1,3,3,3-hexafluoropropan-2-yl 5-(2-(difluoromethyl)-4-(piperidin-1-yl)benzyl)hexahydropyrrolo[3,4-c]pyrrole-2(1H)-carboxylate] | 1000 to 10000 | 1000 to 10000 | 100 to 1000 | < 25 | 25 to 75 | > 75 | 
O=C(OC(C(F)(F)F)C(F)(F)F)N1CC2CN(Cc3ccc(F)cc3N3CCCC3)CC2C1 (stereo not drawn) [Example 15, 1,1,1,3,3,3-Hexafluoropropan-2-yl 5-[[4-fluoro-2-(pyrrolidin-1-yl)phenyl]methyl]-octahydropyrrolo[3,4-c]pyrrole-2-carboxylate] | 1000 to 10000 | 1000 to 10000 | 100 to 1000 | < 25 | 25 to 75 | > 75 | 
Cc1ccc(CN2CC3CN(C(=O)OC(C(F)(F)F)C(F)(F)F)CC3C2)cc1-c1ccccc1 (stereo not drawn) [Example 206, 1,1,1,3,3,3-hexafluoropropan-2-yl 5-((6-methyl-[1,1′-biphenyl]-3-yl)methyl)hexahydropyrrolo[3,4-c]pyrrole-2(1H)-carboxylate] | 1000 to 10000 | 1000 to 10000 | 100 to 1000 | 25 to 75 | 25 to 75 | > 75 | 
CC(=O)N1CCN(c2cc(Cl)ccc2CN2CC3CN(C(=O)OC(C(F)(F)F)C(F)(F)F)CC3C2)CC1 (stereo not drawn) [Example 21, 1,1,1,3,3,3-Hexafluoropropan-2-yl 5-[[2-(4-acetylpiperazin-1-yl)-4-chlorophenyl]methyl]-octahydropyrrolo[3,4-c]pyrrole-2-carboxylate] | 100 to 1000 | 1000 to 10000 | < 100 | 25 to 75 | 25 to 75 | > 75 | 
Cc1c(CN2CC3CN(C(=O)OC(C(F)(F)F)C(F)(F)F)CC3C2)cccc1C(=O)N1CCCC1 (stereo not drawn) [Example 186, 1,1,1,3,3,3-hexafluoropropan-2-yl 5-(2-methyl-3-(pyrrolidine-1-carbonyl)benzyl)hexahydropyrrolo[3,4-c]pyrrole-2(1H)-carboxylate] | 1000 to 10000 | 1000 to 10000 | < 100 | 25 to 75 | < 25 | > 75 | 
CN1CCN(c2c(Cl)cccc2CN2CC3CN(C(=O)OC(C(F)(F)F)C(F)(F)F)CC3C2)CC1 (stereo not drawn) [Example 171, 1,1,1,3,3,3-hexafluoropropan-2-yl 5-[[3-chloro-2-(4-methylpiperazin-1-yl)phenyl]methyl]-octahydropyrrolo[3,4-c]pyrrole-2-carboxylate] | 1000 to 10000 | > 10000 | 100 to 1000 | < 25 | < 25 | > 75 | 
O=C(ON1C(=O)CCC1=O)N1CC2CN(Cc3ccc(Cl)cc3N3CCOC4CCCC43)CC2C1 (stereo not drawn) [Example 82, 2,5-Dioxopyrrolidin-1-yl 5-(4-chloro-2-(hexahydrocyclopenta[b][1,4]oxazin-4(4aH)-yl)benzyl)hexahydropyrrolo[3,4-c]pyrrole-2(1H)-carboxylate] | 1000 to 10000 | 1000 to 10000 | 100 to 1000 | 25 to 75 | < 25 | 25 to 75 | 
Cc1c(CN2CC3CN(C(=O)ON4C(=O)CCC4=O)CC3C2)cccc1N1CCC(F)(F)CC1 (stereo not drawn) [Example 144, 2,5-dioxopyrrolidin-1-yl 5-[[3-(4,4-difluoropiperidin-1-yl)-2-methylphenyl]methyl]-octahydropyrrolo[3,4-c]pyrrole-2-carboxylate] | 1000 to 10000 | 100 to 1000 | < 100 | < 25 | > 75 | > 75 | 
O=C(ON1C(=O)CCC1=O)N1CC2CN(Cc3ccc(N4CCOCC4)cc3Cl)CC2C1 (stereo not drawn) [Example 80, 2,5-Dioxopyrrolidin-1-yl 5-(2-chloro-4-morpholinobenzyl)hexahydropyrrolo[3,4-c]pyrrole-2(1H)-carboxylate] | 1000 to 10000 | 1000 to 10000 | 100 to 1000 | < 25 | 25 to 75 | 25 to 75 | 
O=C(ON1C(=O)CCC1=O)N1CC2CN(Cc3ccc(Cl)cc3N3CC4CCC(C3)O4)CC2C1 (stereo not drawn) [Example 81, 2,5-Dioxopyrrolidin-1-yl 5-(2-(8-oxa-3-azabicyclo[3.2.1]octan-3-yl)-4-chlorobenzyl)hexahydropyrrolo[3,4-c]pyrrole-2(1H)-carboxylate] | 1000 to 10000 | 1000 to 10000 |  | 25 to 75 | < 25 | 25 to 75 | 100 to 1000
O=C(OC(C(F)(F)F)C(F)(F)F)N1CC2CN(Cc3cccc(Cl)c3N3CCOCC3)CC2C1 (stereo not drawn) [Example 44, 1,1,1,3,3,3-Hexafluoropropan-2-yl 5-[[3-chloro-2-(morpholin-4-yl)phenyl]methyl]-octahydropyrrolo[3,4-c]pyrrole-2-carboxylate] | 1000 to 10000 | 1000 to 10000 | < 100 | < 25 | < 25 | > 75 | 
Cn1nc(-c2ccccc2)cc1CN1CC2CN(C(=O)OC(C(F)(F)F)C(F)(F)F)CC2C1 (stereo not drawn) [Example 194, 1,1,1,3,3,3-hexafluoropropan-2-yl 5-((1-methyl-3-phenyl-1H-pyrazol-5-yl)methyl)hexahydropyrrolo[3,4-c]pyrrole-2(1H)-carboxylate] | 1000 to 10000 | 1000 to 10000 | < 100 | < 25 | 25 to 75 | > 75 | 
CC(=O)NC1CCN(c2cccc(CN3CC4CN(C(=O)OC(C(F)(F)F)C(F)(F)F)CC4C3)c2C)CC1 (stereo not drawn) [Example 151, 1,1,1,3,3,3-hexafluoropropan-2-yl 5-[[3-(4-acetamidopiperidin-1-yl)-2-methylphenyl]methyl]-octahydropyrrolo[3,4-c]pyrrole-2-carboxylate] | 1000 to 10000 | 1000 to 10000 | < 100 | 25 to 75 | < 25 | > 75 | 
CC(=O)N1CCC(n2nc(C)cc2CN2CC3CN(C(=O)OC(C(F)(F)F)C(F)(F)F)CC3C2)CC1 (stereo not drawn) [Example 60, 1,1,1,3,3,3-Hexafluoropropan-2-yl 5-[[1-(1-acetylpiperidin-4-yl)-3-methyl-1H-pyrazol-5-yl]methyl]-octahydropyrrolo[3,4-c]pyrrole-2-carboxylate] | 1000 to 10000 | > 10000 | 100 to 1000 | < 25 | < 25 | > 75 | 
CC1COCCN1c1ccc(CN2CC3CN(C(=O)OC(C(F)(F)F)C(F)(F)F)CC3C2)c(F)c1 (stereo not drawn) [Example 25, 1,1,1,3,3,3-Hexafluoropropan-2-yl 5-[[2-fluoro-4-(3-methylmorpholin-4-yl)phenyl]methyl]-octahydropyrrolo[3,4-c]pyrrole-2-carboxylate] | 1000 to 10000 | 1000 to 10000 | < 100 | 25 to 75 | 25 to 75 | > 75 | 
